The data set has as its system WT mice. In words: In vivo subcutaneous PA treatment of WT mice: cardiac phenotyping. As to the method: […] […] General state of the mice (body weight & wellbeing) was closely monitored.
Data acquisition for a single cohort was performed by a single operator (JT or ER). Images were acquired from a parasternal position at the level of the papillary muscles using a 13-MHz linear-array transducer with a digital ultrasound system (Vivid 7, GE Medical System, Horton, Norway). Left ventricular dimensions and ejection fraction, anterior and posterior wall thicknesses were serially obtained from M-mode acquisition. Relative LV wall thickness (RWT) was defined as the sum of septal and posterior wall thickness over LV end-diastolic diameter, and LV mass was determined using the uncorrected cube assumption formula (LV mass=(AWTd+LVEDD+PWTd)^3−(LVEDD)^3). Peak systolic values of radial strain rate of the anterior and posterior wall were obtained using Tissue Doppler Imaging (TDI) as previously described.^2 TDI loops were acquired from parasternal view with a careful alignment with the radial component of the deformation' at a mean frame rate of 514 fps and a depth of 1 cm. The Nyquist velocity limit was set at 12 cm/s. Radial strain rate analysis was performed offline using the EchoPac Software (GE Medical Systems) blindly by a single operator (GD). Peak systolic of radial strain rate was computed from a region of interest positioned in the mid anterior wall and was measured over an axial distance of 0.6 mm. The temporal smoothing filters were turned off for all measurements. Because of the inevitable respiratory variability, we averaged peak systolic of radial strain rate on 8 consecutive cardiac cycles.
In vivo haemodynamic measurements were performed just before mice of indicated ages were sacrificed.' Haemodynamic evaluation was performed in mice placed on a homeothermic operating table in supine position under 1.5% isoflurane anesthesia with spontaneous breathing. A 1.4-Fr microcatheter (Millar Instruments, Houston, USA) was calibrated manually before each experiment, inserted via the right carotid artery into the aorta and subsequently advanced to the left ventricle. Data were collected after at least 10 min of baseline, using the lowest isoflurane concentration tolerated to ensure minimal cardiodepression during measurement of peak rates of isovolumetric pressure development (dP/dtmax) and pressure decay (dP/dtmin). The microcatheter was then withdrawn to the aorta for measurement of systolic and diastolic pressure. Data were analyzed using the IOX software (EMKA, France).
All mice were weighed, euthanized by cervical dislocation, followed by rapid excision of the organs of interest. The heart was cannulated through the aorta for perfusion with ice-cold 1×PBS, then blotted and weighed. The heart was cut in half perpendicular to its axis: the apical two-third was snap-frozen in liquid nitrogen, whilst the basic one-third was recannulated through the aorta, perfused with 10% formalin for histology. Hearts were kept in formalin at 4° C. for at least 24-48 hours before embedding. Snap-frozen tissues were kept at −80° C., until they were powdered using a mortar and pestle cooled with liquid nitrogen and collected as aliquots. Livers and kidneys were processed in a similar manner.
Formalin-fixed organs were embedded in paraffin. Cross-sections were cut into 7 μm thickness using a rotary microtome (Leica). To assess cardiac fibrosis, Sirius red staining was performed, followed by dehydration and mounting with Eukitt quick-hardening mounting medium (Sigma). To visualise cardiomyocyte hypertrophy, sections were incubated in 2 μg/mL Texas red-conjugated wheat germ agglutinin (WGA; Invitrogen) in 1×PBS at room temperature for 45 minutes. Slides were then mounted with fluorescent mounting media (Abcam). Images were acquired using a Zeiss fluorescent microscope. Whole-mount preparations were made of hearts and livers of 2- and 15-month-old p21-mCherry reporter mice. […]

Where [1] appears, read: older group (11 month-old at start), PA 200 mg/kg twice a day, one month.

The results in this text go back to patent US20220268782A1, “METHODS FOR PREDICTING AND TREATING CARDIAC DYSFUNCTION” (INSERM (INSTITUT NATIONAL DE LA SANTÉ EAT DE LA RECHERCHE …, priority 2019, published 2022).

SMILES strings stand for the structures.

On to `N[C@@H](Cc1ccccc1)C(=O)O` [PA, (S)-2-Amino-3-phenylpropanoic acid], for which, where the note is “PA 200 mg/kg twice a day subcutaneously for a month”, the “course of drug treatment (body weight & wellbeing monitored)” value is listed as “completed as scheduled without incidents”. Moreover, the LV ejection fraction entry (PA 200 mg/kg twice a day, one month, FIG. 3h) was “unaltered”. In addition, for the setting “WT mice 5 vs. 11 month-old at start, PA 200 mg/kg twice a day over one month”, the “Plasma PA levels” value is reported as “increased in both age-groups, but were considerably higher in older animals”. The “tolerability / weight loss” value (WT mice, PA 200 mg/kg twice a day over one month, data not shown) was “tolerated PA treatment well without significant weight loss”. Also, the “hepatic PA levels” value (livers of PA-treated 6-month-old WT mice vs. 12-month-old WT mice, FIG. 4m) is listed as “comparable”. Further, the “cardiac hypertrophy (HW/TL)” value is “no change” under setting [1] and “increase” (young animals (5 month-old at start), PA 200 mg/kg twice a day, one month, FIG. 3c). The “cardiomyocyte size (cross-sectional area)” value is on record as “no change” under setting [1] and “increase” (young animals, PA 200 mg/kg twice a day, one month, FIG. 3e). Besides, the “myocardial interstitial fibrosis (Sirius red)” value is, setting by setting: under setting [1], “no change”; (young animals, PA 200 mg/kg twice a day, one month, FIG. 3f) “increase”. Where the note is “young group, PA 200 mg/kg twice a day, one month, FIG. 3i”, the systolic strain rate entry is “reduced”. Besides, under “young group, PA 200 mg/kg twice a day, one month, FIG. 3j”, the dP/dtmax entry is “reduced”. The dP/dtmin entry (young group, PA 200 mg/kg twice a day, one month, FIG. 3k) is reported as “reduced”. Under “young hearts, PA 200 mg/kg twice a day, one month, FIG. 3l”, the “myocardial senescence: p21, Pah, Gch1, 2-SC and 4-HNE” value was “upregulation”.
